Columns and labels:
Experiment in all cases: relative viability (nuclei count vs DMSO), 5 days (fraction); higher = more cells survive
BEN = tested on: BEN
How it was run: (§1)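 The day after seeding in 1536-well plates, lung cancer cell lines were treated by pin tool with a single drug, or with a fixed anchor-drug dose together with five library-drug doses (not always all listed) in √10 steps. After 5 days, a combined fix-and-stain solution (final 0.05% Triton X-100, 1% formaldehyde, 1 ug/ml Hoechst) was added. Nuclei counted on 4× images gave relative viability as treated counts over vehicle counts, reported as the median of duplicate plates.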

HCC-15 = tested on: HCC-15
How it was run: as §1

HCC-78 = tested on: HCC-78
How it was run: as §1

LC-2-ad = tested on: LC-2-ad
How it was run: as §1

LCLC-97TM1 = tested on: LCLC-97TM1
How it was run: as §1

LK-2 = tested on: LK-2
How it was run: as §1

LU99A = tested on: LU99A
How it was run: as §1

LXF-289 = tested on: LXF-289
How it was run: as §1

NCI-H1651 = tested on: NCI-H1651
How it was run: as §1

NCI-H1666 = tested on: NCI-H1666
How it was run: as §1

NCI-H1944 = tested on: NCI-H1944
How it was run: as §1

NCI-H2087 = tested on: NCI-H2087
How it was run: as §1

NCI-H322M = tested on: NCI-H322M
How it was run: as §1

NCI-H358 = tested on: NCI-H358
How it was run: as §1

NCI-H596 = tested on: NCI-H596
How it was run: as §1

NCI-H650 = tested on: NCI-H650
How it was run: as §1

NCI-H661 = tested on: NCI-H661
How it was run: as §1

NCI-H838 = tested on: NCI-H838
How it was run: as §1

PC-3 [JPC-3] = tested on: PC-3 [JPC-3]
How it was run: as §1

SK-MES-1 = tested on: SK-MES-1
How it was run: as §1

UMC-11 = tested on: UMC-11
How it was run: as §1

Q: What does the source list for `NC(=O)Nc1cc(-c2cccc(F)c2)sc1C(=O)N[C@H]1CCCNC1` [AZD7762] + Cc1nc(NC(=O)N2CCC[C@H]2C(N)=O)sc1-c1ccnc(C(C)(C)C(F)(F)F)c1 [Alpelisib] (partner 2 µM)?
A: relative viability (BEN; first compound 0.01 µM): 1.21; relative viability (BEN; first compound 0.03162 µM): 0.992; relative viability (BEN; first compound 0.1 µM): 0.883; relative viability (BEN; first compound 0.3162 µM): 1.06; relative viability (BEN; first compound 1 µM): 0.845; relative viability (HCC-15; first compound 0.01 µM): 0.995; relative viability (HCC-15; first compound 0.03162 µM): 0.945; relative viability (HCC-15; first compound 0.1 µM): 0.983; relative viability (HCC-15; first compound 0.3162 µM): 0.93; relative viability (HCC-15; first compound 1 µM): 1.12; relative viability (HCC-78; first compound 0.01 µM): 0.371; relative viability (HCC-78; first compound 0.03162 µM): 0.419; relative viability (HCC-78; first compound 0.1 µM): 0.361; relative viability (HCC-78; first compound 0.3162 µM): 0.394; relative viability (HCC-78; first compound 1 µM): 0.287; relative viability (LC-2-ad; first compound 0.01 µM): 0.979; relative viability (LC-2-ad; first compound 0.03162 µM): 0.897; relative viability (LC-2-ad; first compound 0.1 µM): 0.795; relative viability (LC-2-ad; first compound 0.3162 µM): 0.612; relative viability (LC-2-ad; first compound 1 µM): 0.433; relative viability (LCLC-97TM1; first compound 0.01 µM): 0.292; relative viability (LCLC-97TM1; first compound 0.03162 µM): 0.272; relative viability (LCLC-97TM1; first compound 0.1 µM): 0.314; relative viability (LCLC-97TM1; first compound 0.3162 µM): 0.278; relative viability (LCLC-97TM1; first compound 1 µM): 0.298; relative viability (LK-2; first compound 0.01 µM): 1.21; relative viability (LK-2; first compound 0.03162 µM): 0.946; relative viability (LK-2; first compound 0.1 µM): 0.976; relative viability (LK-2; first compound 0.3162 µM): 0.838; relative viability (LK-2; first compound 1 µM): 0.618; relative viability (LU99A; first compound 0.01 µM): 0.575; relative viability (LU99A; first compound 0.03162 µM): 0.568; relative viability (LU99A; first compound 0.1 µM): 0.543; relative viability (LU99A; first compound 0.3162 µM): 0.514; relative viability (LU99A; first compound 1 µM): 0.329; relative viability (LXF-289; first compound 0.01 µM): 1.01; relative viability (LXF-289; first compound 0.03162 µM): 1.07; relative viability (LXF-289; first compound 0.1 µM): 1.12; relative viability (LXF-289; first compound 0.3162 µM): 1.04; relative viability (LXF-289; first compound 1 µM): 1.14; relative viability (NCI-H1651; first compound 0.01 µM): 0.918; relative viability (NCI-H1651; first compound 0.03162 µM): 0.849; relative viability (NCI-H1651; first compound 0.1 µM): 0.927; relative viability (NCI-H1651; first compound 0.3162 µM): 0.753; relative viability (NCI-H1651; first compound 1 µM): 0.33; relative viability (NCI-H1666; first compound 0.01 µM): 1.12; relative viability (NCI-H1666; first compound 0.03162 µM): 1.24; relative viability (NCI-H1666; first compound 0.1 µM): 1.18; relative viability (NCI-H1666; first compound 0.3162 µM): 1.02; relative viability (NCI-H1666; first compound 1 µM): 0.75; relative viability (NCI-H1944; first compound 0.01 µM): 0.855; relative viability (NCI-H1944; first compound 0.03162 µM): 1.03; relative viability (NCI-H1944; first compound 0.1 µM): 1.01; relative viability (NCI-H1944; first compound 0.3162 µM): 1.08; relative viability (NCI-H1944; first compound 1 µM): 0.893; relative viability (NCI-H2087; first compound 0.01 µM): 1.18; relative viability (NCI-H2087; first compound 0.03162 µM): 1.08; relative viability (NCI-H2087; first compound 0.1 µM): 1.45; relative viability (NCI-H2087; first compound 0.3162 µM): 1.34; relative viability (NCI-H2087; first compound 1 µM): 1.27; relative viability (NCI-H322M; first compound 0.01 µM): 0.776; relative viability (NCI-H322M; first compound 0.03162 µM): 0.906; relative viability (NCI-H322M; first compound 0.1 µM): 0.819; relative viability (NCI-H322M; first compound 0.3162 µM): 0.94; relative viability (NCI-H322M; first compound 1 µM): 0.906; relative viability (NCI-H358; first compound 0.01 µM): 0.819; relative viability (NCI-H358; first compound 0.03162 µM): 0.964; relative viability (NCI-H358; first compound 0.1 µM): 0.837; relative viability (NCI-H358; first compound 0.3162 µM): 0.629; relative viability (NCI-H358; first compound 1 µM): 0.33; relative viability (NCI-H596; first compound 0.01 µM): 0.549; relative viability (NCI-H596; first compound 0.03162 µM): 0.514; relative viability (NCI-H596; first compound 0.1 µM): 0.481; relative viability (NCI-H596; first compound 0.3162 µM): 0.503; relative viability (NCI-H596; first compound 1 µM): 0.421; relative viability (NCI-H650; first compound 0.01 µM): 1.19; relative viability (NCI-H650; first compound 0.03162 µM): 1.12; relative viability (NCI-H650; first compound 0.1 µM): 1.19; relative viability (NCI-H650; first compound 0.3162 µM): 1.27; relative viability (NCI-H650; first compound 1 µM): 1.02; relative viability (NCI-H661; first compound 0.01 µM): 0.712; relative viability (NCI-H661; first compound 0.03162 µM): 0.611; relative viability (NCI-H661; first compound 0.1 µM): 0.761; relative viability (NCI-H661; first compound 0.3162 µM): 0.491; relative viability (NCI-H661; first compound 1 µM): 0.35; relative viability (NCI-H838; first compound 0.01 µM): 1; relative viability (NCI-H838; first compound 0.03162 µM): 1.01; relative viability (NCI-H838; first compound 0.1 µM): 0.871; relative viability (NCI-H838; first compound 0.3162 µM): 0.959; relative viability (NCI-H838; first compound 1 µM): 0.616; relative viability (PC-3 [JPC-3]; first compound 0.01 µM): 0.998; relative viability (PC-3 [JPC-3]; first compound 0.03162 µM): 1.03; relative viability (PC-3 [JPC-3]; first compound 0.1 µM): 1.05; relative viability (PC-3 [JPC-3]; first compound 0.3162 µM): 1.1; relative viability (PC-3 [JPC-3]; first compound 1 µM): 0.897; relative viability (SK-MES-1; first compound 0.01 µM): 0.968; relative viability (SK-MES-1; first compound 0.03162 µM): 0.946; relative viability (SK-MES-1; first compound 0.1 µM): 1.02; relative viability (SK-MES-1; first compound 0.3162 µM): 1.09; relative viability (SK-MES-1; first compound 1 µM): 0.591; relative viability (UMC-11; first compound 0.01 µM): 1.03; relative viability (UMC-11; first compound 0.03162 µM): 0.962; relative viability (UMC-11; first compound 0.1 µM): 1.06; relative viability (UMC-11; first compound 0.3162 µM): 1.03; relative viability (UMC-11; first compound 1 µM): 0.653

Source: the supplement of paper PMC10307832
